# From patent US20210299076A1, “AMINO ACID FORMULATIONS AND USES THEREOF” (University of Florida Research Foundation, Incorporated, priority 2012, published 2021)
# Several values for one entry are separate records, joined by “and”; a condition that tells them apart may be missing. Equal values may be shown once. Entries after “also recorded” stand apart in the source; their conditions may differ.
# T1: SGLT1 (Mus musculus, UniProt Q8C3K6)
# T1 construct: from tissue; host or cells: ileal mucosa of NIH Swiss mice
# T1 sequence (Q8C3K6 1-665): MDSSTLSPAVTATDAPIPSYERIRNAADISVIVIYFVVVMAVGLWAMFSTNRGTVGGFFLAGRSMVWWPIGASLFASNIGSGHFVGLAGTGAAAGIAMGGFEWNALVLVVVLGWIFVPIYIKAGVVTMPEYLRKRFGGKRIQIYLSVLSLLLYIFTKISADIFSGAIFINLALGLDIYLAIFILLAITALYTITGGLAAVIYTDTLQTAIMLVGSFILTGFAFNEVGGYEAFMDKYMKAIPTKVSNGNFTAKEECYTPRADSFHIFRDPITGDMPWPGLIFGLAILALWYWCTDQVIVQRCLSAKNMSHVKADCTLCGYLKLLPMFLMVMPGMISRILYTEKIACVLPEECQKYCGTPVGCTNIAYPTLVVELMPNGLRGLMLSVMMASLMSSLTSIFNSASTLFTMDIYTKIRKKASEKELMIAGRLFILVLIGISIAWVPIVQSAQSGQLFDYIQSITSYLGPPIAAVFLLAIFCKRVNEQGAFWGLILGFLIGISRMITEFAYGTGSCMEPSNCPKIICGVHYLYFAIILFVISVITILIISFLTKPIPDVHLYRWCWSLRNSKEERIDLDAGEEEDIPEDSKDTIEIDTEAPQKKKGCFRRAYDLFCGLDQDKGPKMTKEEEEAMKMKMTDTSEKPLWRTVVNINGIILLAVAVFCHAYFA
# B1: SGLT1 (Mus musculus) (protein)
# chain: T1 sequence (Q8C3K6 1-665)
# notes: Ion transport studies are performed on ileal sheets; from tissue; host or cells: ileal mucosa of NIH Swiss mice
# How the values were obtained:
# ileum (HCO3− secretion) = experiment: pH stat HCO3− secretion in ileum; type: cell-based, mouse; conditions: for Effect on lumen Cl−-independent HCO3− secretion stimulated by glucose: 100 μM on lumen side, 6 mM glucose
# Procedure: pH stat studies are performed to determine whether HCO3^− secretion contributes to the unaccounted portion of the Isc. At least two modes of HCO3^− secretion in the mouse small intestine have been identified by the present inventors: 1) Cl^−-dependent, electroneutral Cl^−—HCO3^− exchange, and 2) Cl^−-independent, electrogenic HCO3^− secretion. […] Specifically, HCO3^−-free, poorly buffered solution is added to both sides of the tissues mounted in an Ussing chamber and both sides of the tissues are bubbled with 100% O2. Minimal HCO3^− secretion (0.1±0.01 mEq.h^−1.cm^−2, n=12) is recorded under such conditions. Subsequent addition of HCO3^−-containing buffered solution to the basolateral side and bubbling with 95% O2 and 5% CO2 on that side results in significant HCO3^− secretion 3.8±0.2 mEq.h^−1.cm^−2 (n=9). To determine whether lumen Cl^−-independent HCO3^− secretion plays a role in HCO3^− secretion (in the absence of lumen glucose), pH stat experiments are performed in the absence of lumen Cl^−. In the absence of lumen Cl^−, minimal HCO3^− secretion is recorded (0.4±0.1 pEq.h^−1.cm^−2) (FIG. 5A). […] The HCO3^− secretion in the presence of glucose could be due to a lumen Cl^−-dependent, electroneutral Cl—HCO3^− exchange or a lumen Cl^−-independent anion channel-mediated HCO3^− secretion. To assess the mechanism of glucose-stimulated HCO3^− secretion, glucose is added to the mucosal side.
# [1] = tested on: intracellular cAMP in ileal epithelial cells; experiment: Colorimetric intracellular cAMP measurement in ileal villus and crypt cells; type: cell-based, mouse; conditions: villus cells
# Procedure: Freshly isolated mucosal scrapings of ileal epithelial cells are washed three times in Ringer's solution containing 1.2 mM Ca^2+ at 37° C. […] Cells are treated with 0.1 M HCl to stop endogenous phosphodiesterase activity. The lysates are then used for cAMP assay using cAMP direct immunoassay kit (Calbiochem, USA). The quantitative assay of cAMP uses a polyclonal antibody to cAMP that binds to cAMP in samples in a competitive manner. After a simultaneous incubation at room temperature, the excess reagents are washed away and substrates are added. After a short incubation time, the reaction is stopped and the yellow color generated is read at 405 nm. The intensity of the color is inversely proportional to the concentration of cAMP in standards and samples. cAMP levels are standardized to protein levels from respective fractions and expressed in pmol (mg protein)^−1. Forskolin treated cells are used as a positive control. Glucose and forskolin treated cells are incubated for 45 minutes. All the assays are performed in triplicate and repeated until n=4 different mice.
# SGLT1 = target: T1, SGLT1; experiment: Saturation kinetics of Na+-coupled glucose / 3-OMG transport (Isc, Ussing chamber, ileal sheets); type: cell-based
# Description: (§1) Normally fed, 8-week-old, male NIH Swiss mice are sacrificed by CO2 inhalation, followed by cervical dislocation. The small intestine is gently removed, and the segment is washed and flushed in ice-cold Ringer's solution. Then the mucosa is separated from the serosa and the muscular layers by striping through the submucosal plane as previously described (Zhang et al. (2007) J Physiol 581(3):1221-1233). Following exsanguinations, ileal mucosa is obtained from a 10 cm segment close to the caecum. All experiments are approved by the University of Florida Institutional Animal Care and Use Committee.
# (§2) Ion transport studies are performed on ileal sheets. Tissues are then mounted in between the two halves of an Ussing type-Lucite chamber with 0.3 cm^−2 exposed surface areas (P2304, Physiologic Instruments, San Diego, Calif., USA). […] The basal short-circuit current (Isc) and the corresponding conductance (G) are recorded using a computer controlled voltage/current clamp device (VCC MC-8, Physiologic Instruments).
# (§3) Tissues paired with similar conductance and current are treated with or without 100 μM H-89 (Santa Cruz Biotechnology, Inc, Santa Cruz, Calif.), an irreversible protein kinase A (PKA) inhibitor. […] Saturation kinetic constant is calculated for the corresponding Km and Vmax for treated and untreated tissues. […]
# Caco-2 cells = experiment: Confocal Ca2+ fluorescence microscopy (Fluo-8) in Caco-2 cells; type: cell-based
# Procedure: Caco-2 cells are obtained from ATTC and cultured in Dulbecoo's modified Eagle's medium supplemented with 10% fetal calf serum (FCS) and 1% nonessential amino acids at 37° C. and 5% CO2. Caco-2 cells are passaged for 20-25 times and are seeded (2×10^5 cells/dish) on 5 cm petri-dishes and grown until 80% confluence, when the FCS concentration is changed to 5%. Cells are grown for another 10 days before they are used for functional studies.
# Caco2 cells grown in 25 mm round coverslips are mounted on the bath chamber RC-21BR attached to series 20 stage adapter (Warner Instruments, CT USA). […] Fluorescence is recorded by argon lasers with excitation at 488 nm and emission at 515 nm. […] Changes are recorded and fluorescence is measured for various cells. […]
# To determine the role of intracellular Ca^2+ in glucose-stimulated increase in Isc, intracellular Ca^2+ level is measured in the presence of different concentrations of glucose and 3-OMG, respectively, and in the presence of BAPTA-AM (1,2-bis(o-aminophenoxy)ethane-N,N,N′,N′-tetraacetic acid)—an intracellular calcium-specific chelator. The Ca^2+ responses to glucose and 3-OMG in cultured Caco2 cells loaded with the Ca^2+ indicator fluo 8 are monitored by laser scanning confocal microscopy. […] The mean peak amplitude of calcium fluorescence (F/Fo) with 0.6 mM glucose is calculated to be 1.32±0.1 (n=10).
# mouse ileum = experiment: Bio-electric measurement of short-circuit current (Isc) in ileal sheets, Ussing chamber; type: cell-based; conditions: for Effect on glucose- or 3-OMG-stimulated increase in Isc: tissues pre-treated with H-89
# Description: as §1
# Ion transport studies are performed on ileal sheets. Tissues are then mounted in between the two halves of an Ussing type-Lucite chamber with 0.3 cm^−2 exposed surface areas (P2304, Physiologic Instruments, San Diego, Calif., USA). Regular Ringer's solution (115 mM NaCl, 25 mM NaHCO3, 4.8 mM K2HPO4, 2.4 mM KH2PO4, 1.2 mM MgCl2 and 1.2 mM CaCl2) bubbled with 95% O2: 5% CO2 is used bilaterally as bathing solution for the tissues and the temperature is maintained constant at 37° C. The chambers are balanced to eliminate osmotic and hydrostatic forces. Resistance due to fluid is also compensated. The tissues are allowed to stabilize. The basal short-circuit current (Isc) and the corresponding conductance (G) are recorded using a computer controlled voltage/current clamp device (VCC MC-8, Physiologic Instruments).
# Tissues paired with similar conductance and current are treated with or without 100 μM H-89 (Santa Cruz Biotechnology, Inc, Santa Cruz, Calif.), an irreversible protein kinase A (PKA) inhibitor. The tissues are incubated with H-89 for 30 minutes. Increasing concentrations of glucose (0.015-8 mM) are added every 5 minutes and the peak current is noted. Saturation kinetic constant is calculated for the corresponding Km and Vmax for treated and untreated tissues.
# To investigate whether inhibition of glucose transport abolishes PKA-sensitive current, experiments are conducted using phlorizin (Santa Cruz Biotechnology, Inc, Santa Cruz, Calif., USA), a reversible competitive inhibitor of SGLT1. Specifically, ileal tissues mounted in Ussing chamber are treated with 100 μM phlorizin on the lumen side and glucose saturation kinetic studies are conducted.
# [2] = substrate: CO[C@@H]([C@H](O)[C@H](O)CO)[C@@H](O)C=O; experiment: Saturation kinetics of Na+-coupled glucose / 3-OMG transport (Isc, Ussing chamber, ileal sheets); type: cell-based, mouse; conditions: 37.0 °C
# Description: as §1, §2, §3
# [3] = FIG. 5B, lumen Cl− present, 100 μM DIDS, 10 μM NPPB
molecule,measurement,setting,value
"O=S(=O)(O)c1cc(N=C=S)ccc1C=Cc1ccc(N=C=S)cc1S(=O)(=O)O [DIDS, 4,4′-diisothiocyano-2,2′-stilbenedisulfonic acid]",Effect on HCO3− secretion in the absence of glucose,ileum (HCO3− secretion); [3],abolishes HCO3^− secretion
"CO[C@@H]([C@H](O)[C@H](O)CO)[C@@H](O)C=O [Formulation 3-OMG, 3-O-methylglucose]",Intracellular cAMP level compared to 6 mM glucose,"[1]; 3-OMG 6 mM, P<0.01",significantly higher
same,Intracellular cAMP level,"[1]; 3-OMG 0.6 and 6 mM, 45 minutes",significant increase
same,Vmax,"SGLT1; Table 1, no PKA inhibitor, n = 8 tissues",2.7 ± 0.1
same,Vmax,"SGLT1; Table 1, with H-89, n = 8 tissues",1.4 ± 0.1
same,HCO3− secretion,"ileum (HCO3− secretion); 6 mM 3-OMG, absence of lumen and bath HCO3−",0.1±0.03 μEq.h^−1.cm^−2
same,Mean peak amplitude of calcium fluorescence (F/Fo),"Caco-2 cells; 0.6 mM in bath medium, n=10",1.2±0.1 and 1.2±0.2
same,Mean peak amplitude of calcium fluorescence (F/Fo),Caco-2 cells; 6 mM in bathing medium,1.5±0.1
O=S(=O)(NCCNC/C=C/c1ccc(Br)cc1)c1cccc2cnccc12 [Formulation H-89],Effect on glucose- or 3-OMG-stimulated increase in Isc,mouse ileum,significant decrease in Isc
same,Effect on glucose- or 3-OMG-stimulated increase in Isc,mouse ileum; listed as H89,significant reduction
"COc1ccc(Cl)cc1C(=O)NCCc1ccc(S(=O)(=O)NC(=O)NC2CCCCC2)cc1 [Glibenclamide, glibenclamide]",Effect on lumen Cl−-independent HCO3− secretion stimulated by glucose,ileum (HCO3− secretion),inhibits
"O=C(O)c1cc([N+](=O)[O-])ccc1NCCCc1ccccc1 [NPPB, 5-nitro-2-(3-phenylpropylamino)-benzoic acid]",Effect on lumen Cl−-independent HCO3− secretion stimulated by glucose,ileum (HCO3− secretion),inhibits
same,Effect on HCO3− secretion in the absence of glucose,ileum (HCO3− secretion); [3],does not have any inhibitory effect
same,Effect on HCO3− secretion in the presence of 6 mM glucose,ileum (HCO3− secretion); [3],inhibits
N=C(N)NC(=O)c1nc(Cl)c(N)nc1N [amiloride],Effect on Isc,mouse ileum; 10 μM on mucosal side of small intestine,no effect
O=C(CCc1ccc(O)cc1)c1c(O)cc(O)cc1O[C@@H]1O[C@H](CO)[C@@H](O)[C@H](O)[C@H]1O [phlorizin],Effect on glucose- and/or 3-OMG-stimulated increase in Isc,mouse ileum; 100 μM phlorizin on lumen side,no response; also recorded: completely abolished
B1,Km,"[2]; other: Table 1, no PKA inhibitor, n = 8 tissues",200 µM
same,Km,"[2]; other: increasing lumen concentrations up to 8 mM, 140 mM Na+, no inhibitor",220 ± 70 µM
